Reference: US4647586A, “Pharmaceutical oil-in-water type micro-emulsion” (priority 1984, dated 1987)

Columns and labels:
[1] = test system: abnormal 3-legged gait (brewers yeast-inflamed paw); assay: Reversal of abnormal 3-legged gait in rats (analgesic activity); format: in vivo, SD-strain male rats; details: Rattus norvegicus, iv, read-out: ED50 (dose causing at least 50% reversal of gait score in 50% of the rats)
Experimental: (a) Experimental animals: SD-strain male rats (120-165 g).
(§1) (b) Test drugs: The same as in A-1 [Test 2].
A 40% suspension of dried brewers yeast in physiological saline was injected (0.25 ml/rat) subcutaneously into the planter surface of the left hind paw of each rat. Three hours later, the walking gait on a wire mesh platform was assessed for each rat.
0 = Normal gait in the presence of a severely
0.5 = As above, with intermittent mild limping.
1.0 = Constant limping, but continuous use of
1.5 = Limping with occasional 3-legged gait
2.0 = Continous 3-Legged gait and/or only the
Any rat not showing a gait score of 2 was eliminated from this test. Drugs and vehicles were then administered intravenously. Measurements of the gait were made at 1, 2, 3 and 4 hours after drug administration.

[2] = test system: Carrageenin-induced paw edema; assay: Carrageenin-induced paw edema in rats [Test 2]; format: in vivo, SD-strain male rats
Experimental: (a) Experimental animals: SD-strain male rats (120-180 g).
A micro-emulsion containing ethyl 4-biphenylylacetate prepared as in Examples 11, 12, 13 and 14 given hereinafter was administered at a dose of 5 ml per kg of the animals. Venolipid® (Morishita Pharmaceutical Co., Ltd.) was used as a vehicle control. As control drugs, a solution or suspension of ethyl 4-biphenylylacetate in physiological saline containing 0.5% Cremophor EL® (Sigma Chemical Company, a solubilizing agent), 0.2% of polyethylene glycol 400 and 10% of dimethyl sulfoxide, a physiological saline solution of sodium 4-biphenylylacetate and a physiological saline solution of Aspirin DL-lysine [Venopirin®, Green Cross Co.] were used. As the vehicle control of the control drugs, the above solvents were used.
A 1% carrageenin solution in physiological saline was injected subcutaneously in an amount of 0.05 ml into the planter surface of the left hind paw of each rat via a 25 gauge needle fitted to a 0.25 ml syringe. One hour after carrageenin injection, the rats were randomized on the basis of the edema volume, and intravenous administration of the drugs and vehicles followed immediately. The volume of the left hind paw was measured by a plethysmometer (Ugo Basile) prior to the injection of the carrageenin solution and at 2, 3, 4, 5 and 6 hours after the carrageenin injection. As the volume of edema, an increase in the paw volume was taken.
The inhibition percents were calculated in accordance with the same calculation formula as in Test 1.

[3] = test system: brewer's yeast-induced fever; assay: Effects on body temperature in pyretic rats (antipyretic activity); format: in vivo, SD-strain male rats; details: iv, 17 h, read-out: ED50 (dose reducing body temperature by at least 1.5° C. in 50% of the rats)
Experimental: (a) Experimental animals SD-strain male rats (120-185 g).
as §1
Male Sprague-Dawley rats, weighing 120-185 g, were injected subcutaneously in the nape of the neck with 2 ml of a 20% suspension of dried brewers yeast in physiological saline. Drugs and vehicles were administered intravenously 17 hours after treatment of yeast suspension. Rectal temperature was recorded with a thermistor type thermometer (Natsume Seisakusho, BMA-77 Type) just prior to drug administration and at 1/2, 1, 2 and 4 hours after drug administration.

[4] = test system: Adjuvant-induced polyarthritis; assay: Adjuvant-induced polyarthritis in rats, adjuvant-injected paw [Test 2]; format: in vivo, SD-strain female rats
Experimental: (a) Experimental animals: SD-strain famale rats 140-180g).
as §1
Rats were anesthetized with ether inhalation, and 0.6 mg of Mycobacterium butyricum suspended in 0.1 ml of white paraffin oil was immediately injected intradermally into the planter surface of the left hind paw of each rat via a 27 gauge needle fitted to a 0.5 ml syringe (day 0). On the 14th day after the adjuvant injection, arthritis-established rats selected by development of secondary lesions were used. Volumes of both hind paws in arthritis-established rats were measured by a plethysmometer (UGO BASILE), and the rats were randomized on the basis of the edema volume in the adjuvant-injected paw. Once daily, beginning on the 14th day up to the 18th day, drugs and vehicles were administered intravenously. Measurements of both paw volumes were performed every day from the 15th day up to the 18th day, and on the 21st day and the 24th day. The inhibition percent were calculated in accordance with the calculation formula as in [Test 1] of A-1.

In the case of `CC(=O)Oc1ccccc1C(=O)O` (racemic) [Aspirin-DL.Lysine], the ED50 [1] is reported as 93.2 mg/kg, the “Inhibition (%)” value ([2]; 50 mg/kg i.v. as aspirin, 2 h after carrageenin) is reported as 24.2% and the “Inhibition (%)” value ([2]; 50 mg/kg i.v. as aspirin, 3 h after carrageenin) is reported as 26.7%. For the same molecule, the “Inhibition (%)” value ([2]; 50 mg/kg i.v. as aspirin, 4 h after carrageenin) was 35.7%, the “Inhibition (%)” value ([2]; 50 mg/kg i.v. as aspirin, 5 h after carrageenin) was 29.6% and the “Inhibition (%)” value ([2]; 50 mg/kg i.v. as aspirin, 6 h after carrageenin) was 30.0%. The “Inhibition (%)” value ([2]; 100 mg/kg i.v. as aspirin, 2 h after carrageenin) was 24.2%, the “Inhibition (%)” value ([2]; 100 mg/kg i.v. as aspirin, 3 h after carrageenin) was 26.7% and the “Inhibition (%)” value ([2]; 100 mg/kg i.v. as aspirin, 4 h after carrageenin) was 26.8%. The “Inhibition (%)” value ([2]; 100 mg/kg i.v. as aspirin, 5 h after carrageenin) was 22.2%, the “Inhibition (%)” value ([2]; 100 mg/kg i.v. as aspirin, 6 h after carrageenin) was 20.0% and the “Inhibition (%)” value ([2]; 200 mg/kg i.v. as aspirin, 2 h after carrageenin) was 37.9%. The “Inhibition (%)” value ([2]; 200 mg/kg i.v. as aspirin, 3 h after carrageenin) was 43.3%, the “Inhibition (%)” value ([2]; 200 mg/kg i.v. as aspirin, 4 h after carrageenin) was 50.0% and the “Inhibition (%)” value ([2]; 200 mg/kg i.v. as aspirin, 5 h after carrageenin) was 42.6%. The “Inhibition (%)” value ([2]; 200 mg/kg i.v. as aspirin, 6 h after carrageenin) was 44.0%, the ED30 ([2]; Rattus norvegicus, iv, read-out: ED30 (dose required to cause a 30% inhibition of edema volume)) was 81.6 mg/kg and the ED50 [3] was 76.3 mg/kg. The “Inhibition (%)” value ([4]; 50 mg/kg/day i.v. as aspirin, day 15) was -2.7%, the “Inhibition (%)” value ([4]; 50 mg/kg/day i.v. as aspirin, day 16) was -5.2% and the “Inhibition (%)” value ([4]; 50 mg/kg/day i.v. as aspirin, day 17) was -3.8%. The “Inhibition (%)” value ([4]; 50 mg/kg/day i.v. as aspirin, day 18) was -2.6%, the “Inhibition (%)” value ([4]; 50 mg/kg/day i.v. as aspirin, day 21) was -12.4% and the “Inhibition (%)” value ([4]; 50 mg/kg/day i.v. as aspirin, day 24) was -20.0%. The “Inhibition (%)” value ([4]; 100 mg/kg/day i.v. as aspirin, day 15) was 4.0%, the “Inhibition (%)” value ([4]; 100 mg/kg/day i.v. as aspirin, day 16) was 9.2% and the “Inhibition (%)” value ([4]; 100 mg/kg/day i.v. as aspirin, day 17) was 13.2%. The “Inhibition (%)” value ([4]; 100 mg/kg/day i.v. as aspirin, day 18) was 6.8%, the “Inhibition (%)” value ([4]; 100 mg/kg/day i.v. as aspirin, day 21) was 4.2% and the “Inhibition (%)” value ([4]; 100 mg/kg/day i.v. as aspirin, day 24) was -2.8%. For the same molecule, the “Inhibition (%)” value ([4]; 200 mg/kg/day i.v. as aspirin, day 15) was 6.7%, the “Inhibition (%)” value ([4]; 200 mg/kg/day i.v. as aspirin, day 16) was 11.3% and the “Inhibition (%)” value ([4]; 200 mg/kg/day i.v. as aspirin, day 17) was 16.4%. For the same molecule, the “Inhibition (%)” value ([4]; 200 mg/kg/day i.v. as aspirin, day 18) was 15.3%, the “Inhibition (%)” value ([4]; 200 mg/kg/day i.v. as aspirin, day 21) was 7.2% and the “Inhibition (%)” value ([4]; 200 mg/kg/day i.v. as aspirin, day 24) was 6.2%. The ED20 ([4]; Rattus norvegicus, iv, read-out: ED20 (dose required to cause a 20% inhibition of adjuvant-injected paw volume)) was 320 mg/kg.
